# Data from paper PMC4070716 (Journal of Medicinal Chemistry, 2014).
# “Also recorded” adds a separate entry of the source. Where two headings read alike, the source gives them in different places. Marks after values point to notes of the source that are not given here.
# Tests used:
# [1] = target: T1, human δ opioid receptor (Homo sapiens, UniProt P41143); details: cloned human δ receptor; data taken from ref 15; cited from earlier work
# [2] = system: μ receptor; details: mouse writhing test, μ antagonism; cited from earlier work
# [3] = target: T2, human κ opioid receptor (Homo sapiens, UniProt P41145); assay: [35S]GTPγS binding assay, intrinsic; assay type: biochemical
# [4] = target: T1, human δ opioid receptor; assay: [35S]GTPγS binding assay, intrinsic; assay type: biochemical
# [5] = target: T3, human μ opioid receptor (Homo sapiens, UniProt P35372); assay: [35S]GTPγS binding assay, intrinsic; assay type: biochemical
# [6] = system: κ receptor; details: mouse writhing test, κ antagonism; cited from earlier work
# [7] = target: T2, human κ opioid receptor; assay: Inhibition of U69,593-stimulated [35S]GTPγS binding; assay type: biochemical; details: for fold more potent antagonist than N-methyl counterpart, κ receptor: ratio of Ke values (a vs b analogue)
# [8] = target: T3, human μ opioid receptor; details: cloned human μ receptor; data taken from ref 15; cited from earlier work
# [9] = system: opioid receptor; details: cited from earlier work
# [10] = system: opioid receptor; details: cited from earlier work; remark: listed apart in the source
# [11] = target: T1, human δ opioid receptor; assay: Inhibition of DPDPE-stimulated [35S]GTPγS binding; assay type: biochemical; details: for Ke (nM) δ, DPDPE: cloned human δ receptor in CHO cells, mean ± SE, at least three experiments
# [12] = target: T3, human μ opioid receptor; assay: Inhibition of DAMGO-stimulated [35S]GTPγS binding; assay type: biochemical; details: for fold more potent antagonist than N-methyl counterpart, μ receptor: ratio of Ke values (a vs b analogue)
# T2 sequence (P41145 whole entry): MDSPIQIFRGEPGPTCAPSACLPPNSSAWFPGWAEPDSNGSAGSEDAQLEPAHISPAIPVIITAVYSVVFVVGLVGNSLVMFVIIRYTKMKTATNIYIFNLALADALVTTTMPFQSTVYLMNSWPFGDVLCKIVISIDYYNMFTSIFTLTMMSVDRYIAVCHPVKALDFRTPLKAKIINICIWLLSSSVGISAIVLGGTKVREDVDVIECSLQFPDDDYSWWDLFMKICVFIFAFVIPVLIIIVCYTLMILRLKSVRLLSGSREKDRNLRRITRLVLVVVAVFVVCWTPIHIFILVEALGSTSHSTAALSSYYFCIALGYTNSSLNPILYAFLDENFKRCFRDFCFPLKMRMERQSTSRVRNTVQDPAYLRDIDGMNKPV
# T3 sequence (P35372 whole entry): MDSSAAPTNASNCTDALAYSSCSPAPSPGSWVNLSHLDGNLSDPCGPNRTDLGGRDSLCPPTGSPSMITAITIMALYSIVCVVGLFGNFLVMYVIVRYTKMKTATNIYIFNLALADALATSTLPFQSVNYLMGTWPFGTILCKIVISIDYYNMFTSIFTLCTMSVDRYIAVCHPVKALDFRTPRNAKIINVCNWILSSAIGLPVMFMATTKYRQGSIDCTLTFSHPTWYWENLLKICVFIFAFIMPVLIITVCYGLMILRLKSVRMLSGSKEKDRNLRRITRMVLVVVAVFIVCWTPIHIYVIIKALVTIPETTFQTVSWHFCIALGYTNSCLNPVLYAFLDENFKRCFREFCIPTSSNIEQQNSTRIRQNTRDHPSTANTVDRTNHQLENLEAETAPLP
# T1 sequence (P41143 whole entry): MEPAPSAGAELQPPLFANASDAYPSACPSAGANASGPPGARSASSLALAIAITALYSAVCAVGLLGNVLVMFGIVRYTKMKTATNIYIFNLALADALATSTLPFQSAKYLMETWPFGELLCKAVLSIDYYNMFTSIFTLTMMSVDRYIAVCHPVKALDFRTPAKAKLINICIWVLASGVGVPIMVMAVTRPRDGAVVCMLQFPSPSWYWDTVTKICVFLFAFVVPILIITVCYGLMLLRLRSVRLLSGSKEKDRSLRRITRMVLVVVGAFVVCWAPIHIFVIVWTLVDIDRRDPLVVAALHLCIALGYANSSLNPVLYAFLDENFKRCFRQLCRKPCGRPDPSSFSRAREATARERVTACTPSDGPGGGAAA
Compound,"agonist activity at 10 μM, κ receptor [3]","agonist activity at 10 μM, δ receptor [4]","agonist activity at 10 μM, μ receptor [5]",Kb [7],Kb [12],Kb [11],further results
"C[C@H]1CN(C)CC[C@@]1(C)c1cccc(O)c1 [Compound 2a, 3-[(3R,4R)-1,3,4-Trimethylpiperidin-4-yl]phenol]",no opioid agonist efficacy,no opioid agonist efficacy,no opioid agonist efficacy,134 ± 27.1 nM,–,–,"Ke (nM) δ, DPDPE [1]: 681 ± 241 ^b nM; AD50, antagonist of morphine-induced antinociception [2]: 0.74 mg/kg; AD50, antagonist of U50,488-induced antinociception [6]: > 5.0 mg/kg; Ke (nM) μ, DAMGO [8]: 29.3 ± 3.4 ^b nM; opioid receptor agonist activity in the rat tail heat analgesic test [9]: did not have any opioid receptor agonist activity; opioid receptor agonist activity in the mouse writhing test [10]: did not have any opioid receptor agonist activity"
"C[C@H]1CN(CCCc2ccccc2)CC[C@@]1(C)c1cccc(O)c1 [Compound 2b, 3-[(3R,4R)-3,4-Dimethyl-1-(3-phenylpropyl)piperidin-4-yl]phenol]",–,–,–,0.88 ± 0.17 nM,–,–,"Ke (nM) δ, DPDPE [1]: 0.9 ± 0.32 ^b nM; AD50, antagonist of morphine-induced antinociception [2]: 0.28 mg/kg; Ke (nM) μ, DAMGO [8]: 0.1 ± 0.02 ^b nM"
"C[C@H]1CN(C)CCN1c1cccc(O)c1 [Compound 4a, 3-[(2S)-2,4-Dimethylpiperazin-1-yl]phenol]",no opioid agonist efficacy,no opioid agonist efficacy,no opioid agonist efficacy,–,–,–,"Ke (nM) δ, DPDPE [11]: no antagonism; also recorded: IA ^d"
"C[C@H]1CN(CCCc2ccccc2)CCN1c1cccc(O)c1 [Compound 4b, 3-[(2S)-2-Methyl-4-(3-phenylpropyl)piperazin-1-yl]phenol]",no opioid agonist efficacy,no opioid agonist efficacy,no opioid agonist efficacy,–,–,–,–
"CC1CN(C)CCC1c1cccc(O)c1 (stereo not drawn) [Compound 5a, 3-(1,3-Dimethylpiperidin-4-yl)phenol]",–,–,–,1310 ± 447 nM,1250 ± 423 nM,–,–
"CC1CN(CCCc2ccccc2)CCC1c1cccc(O)c1 (stereo not drawn) [Compound 5b, 3-[3-Methyl-1-(3-phenylpropyl)piperidin-4-yl]phenol]",no agonist efficacy,no agonist efficacy,no agonist efficacy,16.5 ± 5 nM,11.9 ± 2 nM,46 ± 18 nM,"fold more potent antagonist than N-methyl counterpart, κ receptor [7]: 79 fold; fold more potent antagonist than N-methyl counterpart, μ receptor [12]: 105 fold"
"CN1CCC(C)(c2cccc(O)c2)CC1 [Compound 6a, 3-(1,4-Dimethylpiperidin-4-yl)phenol]",–,–,–,477 ± 150 nM,974 ± 230 nM,–,"EC50 [4]: 8300 nM; Ke (nM) δ, DPDPE [11]: agonist ^c"
"CC1(c2cccc(O)c2)CCN(CCCc2ccccc2)CC1 [Compound 6b, 3-[4-Methyl-1-(3-phenylpropyl)piperidin-4-yl]phenol]",no agonist efficacy,no agonist efficacy,no agonist efficacy,21.3 ± 9 nM,5.5 ± 0.59 nM,178 ± 47 nM,"fold more potent antagonist than N-methyl counterpart, κ receptor [7]: 22 fold; fold more potent antagonist than N-methyl counterpart, μ receptor [12]: 177 fold"
"CN1CCC(c2cccc(O)c2)CC1 [Compound 7a, 3-(1-Methylpiperidin-4-yl)phenol]",no agonist activity,no agonist activity,no agonist activity,2700 ± 1300 nM,–,–,"Ke (nM) δ, DPDPE [11]: inactive; also recorded: no antagonist properties; also recorded: IA ^d; Ke (nM) μ, DAMGO ([12]; cloned human μ receptor in CHO cells, mean ± SE, at least three experiments): inactive; also recorded: no antagonist properties; also recorded: IA ^d"
"Oc1cccc(C2CCN(CCCc3ccccc3)CC2)c1 [Compound 7b, 3-[1-(3-Phenylpropyl)piperidin-4-yl]phenol]",no agonist efficacy,no agonist efficacy,no agonist efficacy,5.8 ± 2 nM,75.6 ± 21 nM,418 ± 120 nM,–
"CN1CCN(c2cccc(O)c2)CC1 [Compound 8a, 3-(4-Methylpiperazin-1-yl)phenol]",no opioid agonist efficacy,no opioid agonist efficacy,no opioid agonist efficacy,–,4300 ± 1700 nM,1600 ± 480 nM,–
"Oc1cccc(N2CCN(CCCc3ccccc3)CC2)c1 [Compound 8b, 3-[4-(3-Phenylpropyl)piperazin-1-yl]phenol]",no opioid agonist efficacy,no opioid agonist efficacy,no opioid agonist efficacy,36.8 ± 16.8 nM,–,–,"fold more potent antagonist than N-methyl counterpart, δ receptor ([11]; ratio of Ke values (a vs b analogue)): 47 fold; fold more potent antagonist than N-methyl counterpart, μ receptor [12]: 507 fold"
